Assays:
giant foxtail = experiment: Test B pre/postemergence giant foxtail; type: in vivo, Setaria faberii
How it was run: (§1)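 Response is a visual 0-to-10 score relative to untreated plants, where 0 means no effect and 10 means complete control, taken twelve to sixteen days after application. Treatments went onto soil at planting and onto foliage of 1- to 4-leaf plants, using a surfactant-containing non-phytotoxic solvent.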

purple nutsedge = experiment: Test B pre/postemergence purple nutsedge; type: in vivo, Cyperus rotundus
How it was run: as §1

surinam grass = experiment: Test B pre/postemergence surinam grass; type: in vivo, Brachiaria decumbens
How it was run: as §1

smallflower flatsedge = experiment: Test B flood test smallflower flatsedge; type: in vivo, Cyperus difformis
How it was run: (§2)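 Each value is a visual injury score relative to controls, with 10 meaning complete control and 0 no effect. Evaluation took place twelve to sixteen days after the 2-leaf-stage plants were treated and kept in the greenhouse.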

rice = experiment: Test B flood test rice; type: in vivo, Oryza sativa
How it was run: as §2

morningglory = experiment: Test B pre/postemergence morningglory; type: in vivo, Ipomoea hederacea
How it was run: as §1

sugar beet = experiment: Test B pre/postemergence sugar beet; type: in vivo, Beta vulgaris
How it was run: as §1

wild oat = experiment: Test B pre/postemergence wild oat; type: in vivo, Avena fatua
How it was run: as §1

rape = experiment: Test B pre/postemergence rape; type: in vivo, Brassica napus
How it was run: as §1

duck salad = experiment: Test B flood test duck salad; type: in vivo, Heteranthera limosa
How it was run: as §2

pigweed = experiment: Test B pre/postemergence pigweed; type: in vivo, Amaranthus retroflexus
How it was run: as §1

bamyardgrass = experiment: Test B flood test barnyardgrass; type: in vivo, Echinochloa crus-galli
How it was run: as §2

wheat = experiment: Test B pre/postemergence wheat; type: in vivo, Triticum aestivum
How it was run: as §1

crabgrass = experiment: Test B pre/postemergence crabgrass; type: in vivo, Digitaria sanguinalis
How it was run: as §1

cocklebur = experiment: Test B pre/postemergence cocklebur; type: in vivo, Xanthium strumarium
How it was run: as §1

corn = experiment: Test B pre/postemergence corn; type: in vivo, Zea mays
How it was run: as §1

[1] = Preemergence, Rate 62 g/ha, scale of 0 to 10 where 0 is no effect and 10 is complete control
[2] = Preemergence, Rate 250 g/ha, scale of 0 to 10 where 0 is no effect and 10 is complete control
[3] = Preemergence, Rate 500 g/ha, scale of 0 to 10 where 0 is no effect and 10 is complete control
[4] = Rate 62 g/ha, Postemergence, scale of 0 to 10 where 0 is no effect and 10 is complete control
[5] = Rate 125 g/ha, Postemergence, scale 0 to 10
[6] = Rate 125 g/ha, Preemergence, scale of 0 to 10 where 0 is no effect and 10 is complete control
[7] = Rate 500 g/ha, Postemergence, scale 0 to 10
[8] = Rate 62 g/ha, headed Pre-emergence (flood test species), scale 0 to 10 (0 no effect, 10 complete control)
[9] = Rate 125 g/ha, Pre-emergence, flood test species, scale 0 to 10 where 0 is no effect and 10 is complete control
[10] = Rate 250 g/ha, Pre-emergence, flood-test species, scale 0 to 10, 0 is no effect, 10 is complete control
[11] = Rate 500 g/ha, Pre-emergence, flood test species, scale 0 to 10 (0 no effect, 10 complete control)

Structure (SMILES): CC(C)N(C(=O)n1oc(=O)n(CC(=O)C(C)(C)C)c1=O)c1ccc(F)cc1 [Compound 216]
- Giant foxtail plant response rating (giant foxtail; [1]): 0
- Giant foxtail plant response rating (giant foxtail; [2]): 7
- Plant response rating, Giant foxtail (giant foxtail; [3]): 9
- Giant foxtail plant response rating (giant foxtail; [4]): 0
- Giant foxtail plant response rating (giant foxtail; [5]): 2
- Giant foxtail plant response rating (giant foxtail; [6]): 6
- Plant response rating (0 to 10; 0 is no effect, 10 is complete control), Giant foxtail (giant foxtail; Rate 250 g/ha, Postemergence): 4
- Giant foxtail plant response rating (giant foxtail; [7]): 6
- Nutsedge plant response rating (purple nutsedge; [1]): 0
- Nutsedge plant response rating (purple nutsedge; [2]): 0
- Plant response rating, Nutsedge (purple nutsedge; [3]): 0
- Nutsedge plant response rating (purple nutsedge; [4]): 0
- Nutsedge plant response rating (purple nutsedge; [5]): 0
- Nutsedge plant response rating (purple nutsedge; [6]): 0
- Plant response rating (0 to 10; 0 is no effect, 10 is complete control), Nutsedge (purple nutsedge; Rate 250 g/ha, Postemergence): 0
- Nutsedge plant response rating (purple nutsedge; [7]): 0
- B. signalgrass plant response rating (surinam grass; [1]): 0
- B. signalgrass plant response rating (surinam grass; Preemergence, Rate 250 g/ha, scale 0 to 10, 0 is no effect, 10 is complete control): 4
- Plant response rating, B. signalgrass (surinam grass; [3]): 4
- B. signalgrass plant response rating (surinam grass; [4]): 0
- B. signalgrass plant response rating (surinam grass; Rate 125 g/ha, Postemergence, scale 0 (no effect) to 10 (complete control)): 2
- B. signalgrass plant response rating (surinam grass; [6]): 1
- Plant response rating (0 to 10; 0 is no effect, 10 is complete control), B. signalgrass (surinam grass; Rate 250 g/ha, Postemergence): 5
- B. signalgrass plant response rating (surinam grass; Rate 500 g/ha, Postemergence, scale 0 to 10, 0 no effect, 10 complete control): 8
- S. Flatsedge plant response rating (smallflower flatsedge; [8]): 0
- S. Flatsedge plant response rating (smallflower flatsedge; [9]): 0
- S. Flatsedge plant response rating (smallflower flatsedge; [10]): 0
- S. Flatsedge plant response rating (smallflower flatsedge; [11]): 0
- Rice plant response rating (rice; [8]): 0
- Rice plant response rating (rice; [9]): 0
- Rice plant response rating (rice; [10]): 0
- Rice plant response rating (rice; [11]): 0
- Morningglory plant response rating (morningglory; [1]): 0
- Morningglory plant response rating (morningglory; [2]): 0
- Plant response rating, Morningglory (morningglory; [3]): 0
- Morningglory plant response rating (morningglory; [4]): 3
- Morningglory plant response rating (morningglory; [5]): 4
- Morningglory plant response rating (morningglory; [6]): 0
- Plant response rating (0 to 10; 0 is no effect, 10 is complete control), Morningglory (morningglory; Rate 250 g/ha, Postemergence): 7
- Morningglory plant response rating (morningglory; [7]): 10
- Sugarbeets plant response rating (sugar beet; [1]): 0
- Sugarbeets plant response rating (sugar beet; [2]): 0
- Plant response rating, Sugarbeets (sugar beet; [3]): 0
- Sugarbeets plant response rating (sugar beet; [4]): 0
- Sugarbeets plant response rating (sugar beet; [5]): 0
- Sugarbeets plant response rating (sugar beet; [6]): 0
- Plant response rating (0 to 10; 0 is no effect, 10 is complete control), Sugarbeets (sugar beet; Rate 250 g/ha, Postemergence): 0
- Sugarbeets plant response rating (sugar beet; [7]): 2
- Wild oats plant response rating (wild oat; [1]): 0
- Wild oats plant response rating (wild oat; [2]): 0
- Plant response rating, Wild oats (wild oat; [3]): 0
- Wild oats plant response rating (wild oat; [4]): 0
- Wild oats plant response rating (wild oat; [5]): 0
- Wild oats plant response rating (wild oat; [6]): 0
- Plant response rating (0 to 10; 0 is no effect, 10 is complete control), Wild oats (wild oat; Rate 250 g/ha, Postemergence): 0
- Rape plant response rating (rape; [1]): 0
- Rape plant response rating (rape; [2]): 0
- Plant response rating, Rape (rape; [3]): 0
- Rape plant response rating (rape; [4]): 0
- Rape plant response rating (rape; [5]): 0
- Rape plant response rating (rape; [6]): 0
- Plant response rating (0 to 10; 0 is no effect, 10 is complete control), Rape (rape; Rate 250 g/ha, Postemergence): 0
- Rape plant response rating (rape; [7]): 3
- Ducksalad plant response rating (duck salad; [8]): 0
- Ducksalad plant response rating (duck salad; [9]): 0
- Ducksalad plant response rating (duck salad; [10]): 0
- Ducksalad plant response rating (duck salad; [11]): 0
- Redroot pigweed plant response rating (pigweed; [1]): 0
- Redroot pigweed plant response rating (pigweed; [2]): 2
- Plant response rating, Redroot pigweed (pigweed; [3]): 8
- Redroot pigweed plant response rating (pigweed; [4]): 0
- Redroot pigweed plant response rating (pigweed; [5]): 0
- Redroot pigweed plant response rating (pigweed; [6]): 0
- Plant response rating (0 to 10; 0 is no effect, 10 is complete control), Redroot pigweed (pigweed; Rate 250 g/ha, Postemergence): 2
- Redroot pigweed plant response rating (pigweed; [7]): 3
- Barnyardgrass plant response rating (bamyardgrass; [8]): 0
- Barnyardgrass plant response rating (bamyardgrass; [9]): 0
- Barnyardgrass plant response rating (bamyardgrass; [10]): 0
- Barnyardgrass plant response rating (bamyardgrass; [11]): 0
- Wheat plant response rating (wheat; [1]): 0
- Wheat plant response rating (wheat; [2]): 0
- Plant response rating, Wheat (wheat; [3]): 0
- Wheat plant response rating (wheat; [4]): 0
- Wheat plant response rating (wheat; [5]): 0
- Wheat plant response rating (wheat; [6]): 0
- Plant response rating (0 to 10; 0 is no effect, 10 is complete control), Wheat (wheat; Rate 250 g/ha, Postemergence): 0
- Crabgrass plant response rating (crabgrass; [1]): 0
- Crabgrass plant response rating (crabgrass; [2]): 8
- Plant response rating, Crabgrass (crabgrass; [3]): 8
- Crabgrass plant response rating (crabgrass; [4]): 0
- Crabgrass plant response rating (crabgrass; [5]): 2
- Crabgrass plant response rating (crabgrass; [6]): 3
- Plant response rating (0 to 10; 0 is no effect, 10 is complete control), Crabgrass (crabgrass; Rate 250 g/ha, Postemergence): 4
- Crabgrass plant response rating (crabgrass; [7]): 7
- Cocklebur plant response rating (cocklebur; [1]): 0
- Cocklebur plant response rating (cocklebur; [2]): 0
- Plant response rating, Cocklebur (cocklebur; [3]): 0
- Cocklebur plant response rating (cocklebur; [4]): 0
- Cocklebur plant response rating (cocklebur; [5]): 0
- Cocklebur plant response rating (cocklebur; [6]): 0
- Plant response rating (0 to 10; 0 is no effect, 10 is complete control), Cocklebur (cocklebur; Rate 250 g/ha, Postemergence): 0
- Cocklebur plant response rating (cocklebur; [7]): 3
- Corn plant response rating (corn; [1]): 0
- Corn plant response rating (corn; [2]): 0
- Plant response rating, Corn (corn; [3]): 0
- Corn plant response rating (corn; [4]): 0
- Corn plant response rating (corn; [5]): 0
- Corn plant response rating (corn; [6]): 0
- Plant response rating (0 to 10; 0 is no effect, 10 is complete control), Corn (corn; Rate 250 g/ha, Postemergence): 2
- Corn plant response rating (corn; [7]): 3
